This is an account of results in patent US20100035865A1, “Sulfonamides and Pharmaceutical Compositions Thereof” (PFIZER INC, priority 2007, published 2010).

Where “and” joins values, the source holds several entries; their conditions need not be identical. Equal entries are not always repeated. Where two headings read alike, the source gives them in different places.

In this experiment the test system is AMPA receptors. Kind of experiment: AMPA ES Cell FLIPR Screen, G7330B (EC50 and % effect). To be noted: for EC50: ES cell-derived neurons, 32 uM AMPA challenge. Type of experiment: cell-based, murine. How it is done: The murine ES cell line used was E14-Sx1-16C, which has a targeted mutation in the Sox1 gene, a neuroectodermal marker, that offers G418 resistance when the Sox1 gene is expressed (Stem Cell Sciences). ES cells were maintained undifferentiated as previously described (Roach). […] ES cells were plated on gelatin-coated dishes (BD Biosciences), the media was changed daily and the cells were dissociated with 0.05% Trypsin EDTA (Invitrogen) every other day.
Embryoid Body Formation: Prior to embryoid body (EB) formation the ES cells were weaned from FBS onto Knockout Serum Replacement (KSR) (Invitrogen). To form EBs, ES cells were dissociated into a single cell suspension then 3×10^6 cells were plated in bacteriology dishes (Nunc 4014) and grown as a suspension culture in NeuroEB-I medium that consisted of Knockout™ D-MEM (Invitrogen), supplemented with 10% KSR (Invitrogen), 0.2 mM L-Glutamine (Invitrogen), 0.1 mM MEM non-essential amino acids (Invitrogen), 30 μg/ml Gentamicin (Invitrogen), 1000 u/ml ESGRO (Chemicon), 0.1 mM 2-Mercaptoethanl (Sigma) and 150 ng/ml Transferrin (Invitrogen). The plates were put on a Stovall Belly Button shaker in an atmospheric oxygen incubator. The media was changed on day 2 of EB formation with NeuroEB-I and on day 4 with NeuroEB-II (NeuroEB-I plus 1 μg/ml mNoggin [R&D Systems]).
Neuronal Precursor Selection and Expansion: On day 5 of EB formation, EBs were dissociated with 0.05% Trypsin EDTA, and 4×10^6 cells/100 mm dish were plated on Laminin coated tissue culture dishes in NeuroII-G418 medium that consisted of a base medium of a 1:1 mixture of D-MEM/F12 supplemented with N2 supplements and NeuroBasal Medium supplemented with B27 supplement and 0.1 mM L-Glutamine (all from Invitrogen). The base medium was then supplemented with 10 ng/ml bFGF (Invitrogen), 1 μg/ml mNoggin, 500 ng/ml SHH-N, 100 ng/ml FGF-8b (R&D Systems), 1 μg/ml Laminin and 200 μg/ml G418 (Invitrogen) for selection of neuronal precursors expressing Sox-1. The plates were put in an incubator that contained 2% Oxygen and were maintained in these conditions. During the 6-day selection period, the NeuroII media was changed daily. On day 6, the surviving neuronal precursor foci were dissociated with 0.05% Trypsin EDTA and the cells were plated at a density of 1.5×10^6 cells/100 mm Laminin coated dish in NeuroII-G418 medium. The cells were dissociated every other day for expansion, and prepared for Cryopreservation at passage 3 or 4. The cryopreservation medium contained 50% KSR, 10% Dimethyl Sulfoxide (DMSO) (Sigma) and 40% NeuroI-G418I medium. Neuronas precursors were crypreserved at a concentration of 4×10^6cells/ml and 1 ml/cryovial in a controlled rate freezer overnight then transferred to an ultra-low freezer or liquid nitrogen for long-term storage,
Neuronal Differentiation: Cryopreserved ES cell-derived neuronal precursors were thawed by the rapid thaw method in a 37-degree water-bath. The cells were transferred from the cryovial to a 100 mm Laminin coated tissue culture dish that already contained NeuroII-G418 that had been equilibrated in a 2% Oxygen incubator. The media was changed with fresh NeuroII-G418 the next day. The cells were dissociated every other day as described above for expansion to generate enough cells to plate for the screen. For the screen, the cells were plated into 384-well poly-d-lysine coated tissue culture dishes (BD Biosciences) by the automated SelecT at a cell density of 6K cells/well in differentiation medium NeuroIII that contained a 4:1 ratio of the NeuroBasalMedium/B27:D-MEM/F12/N2 supplemented with 1 μM cAMP (Sigma), 200 μM Ascorbic Acid (Sigma), 1 μg/ml Laminin (Invitrogen) and 10 ng/ml BDNF (R&D Systems). The plates were put in an incubator with 2% Oxygen and allowed to complete the differentiation process for 7 days. The cells could then be used over a 5-day period for the high throughput screen.
Procedure for AMPA ES Cell FLIPR Screen […]

The mark [1] stands for this setting: individual determinations, read-out: G7330B (U): EC50.
Setting [2] is: mean of individual determinations (range and n in cells below), read-out: G7330B mean EC50.
Where [3] appears, read: Dose 31.6 uM, individual determinations.
[4] abbreviates: Dose 32.0 uM, individual determinations.

One may read the EC50 as the concentration at which the effect is half-maximal.

Turning to `CC(C)S(=O)(=O)N[C@@H]1COCC[C@H]1c1ccc(-c2ccc(S(C)(=O)=O)cc2)cc1` [Example 37, Propane-2-sulfonic acid[trans-4-(4′-methanesulfonyl-biphenyl-4-yl)-tetrahydro-pyran-3-yl]-amide], the EC50 reads like this: under setting [1], over 10 µM; under setting [2], over 10 µM.

Turning to `CC(C)S(=O)(=O)NC1COCCC1c1ccc(-c2ccc(C#N)cc2)cc1` (stereo not drawn) [Example 35, Propane-2-sulfonic acid[trans-4-(4′-cyano-biphenyl-4-yl)-tetrahydro-pyran-3-yl]-amide], the “G7330B (U): % Effect” value under setting [3] is 146% and 155% and 152%. Further, the EC50 under setting [1] is 8.97 µM and the EC50 under setting [2] turned out to be 8.97 µM.

Take `CC(C)S(=O)(=O)N[C@H]1COCC[C@]1(O)c1ccc(-c2ccccc2)cc1` (relative stereo) [Example 41, Propane-2-sulfonic acid((3S,4S)-rel-4-biphenyl-4-yl-4-hydroxytetrahydro-pyran-3-yl)-amide]: under setting [3], the “G7330B (U): % Effect” value was 58.3% and 66.6%. For the same molecule, the EC50 runs as follows: under setting [1], 3.05 µM; under setting [2], 3.05 µM.

Take `CNC(=O)c1ccc(-c2ccc([C@@H]3CCOC[C@H]3NS(=O)(=O)C(C)C)cc2)cc1` (relative stereo) [Example 38, 4′-[trans-3-(Propane-2-sulfonylamino)-tetrahydro-pyran-4-yl]-biphenyl-4-carboxylic acid methylamide]: the EC50 was over 10 µM under setting [1] and over 10 µM under setting [2].

For `CC(C)S(=O)(=O)N[C@@H]1CCN(C)C[C@H]1c1ccc(NC(=O)c2ccccc2)cc1` (relative stereo) [Example 44, N-{4-[trans-1-Methyl-4-(propane-2-sulfonylamino)-piperidin-3-yl]-phenyl}-benzamide], the “G7330B (U): % Effect” value under setting [3] was 1.85% and 1.10% and 5.81%. In addition, the EC50 runs as follows: under setting [1], over 31.6 µM; under setting [2], over 31.6 µM.

`CC(=O)N1CCC(NS(=O)(=O)C(C)C)C(c2ccc(-c3ccc(C#N)cc3)cc2)C1` (stereo not drawn) [Example 28, Propane-2-sulfonic acid[trans-1-acetyl-3-(4′-cyano-biphenyl-4-yl)-piperidin-4-yl]-amide]: the “G7330B (U): % Effect” value under setting [4] was 128% and 132% and 116%. Besides, the EC50 runs as follows: under setting [1], 6.44 µM; under setting [2], 6.44 µM.

`CC(C)S(=O)(=O)NC1COCCC1c1ccc(-c2ccccc2)cc1` (stereo not drawn) [Example 30, Propane-2-sulfonic acid(trans-4-biphenyl-4-yl-tetrahydro-pyran-3-yl)-amide]: the “G7330B (U): % Effect” value under setting [4] is 119% and 113% and 126%. The EC50 was 5.39 µM and > 31.6 µM and 6.36 µM under setting [1]; over 10.3 µM under setting [2].

Turning to `CC(C)S(=O)(=O)N[C@@H]1CCNC[C@H]1c1ccc(-c2ccccc2C(N)=O)cc1` (relative stereo) [Example 21, 4′-[trans-4-(Propane-2-sulfonylamino)-piperidin-3-yl]-biphenyl-2-carboxylic acid amide], under setting [4], the “G7330B (U): % Effect” value was 0.573% and 0.266% and 0.149%. In addition, the EC50 under setting [1] is over 32 µM and the EC50 under setting [2] was over 32 µM.

Take `CC(C)S(=O)(=O)NC1CCNCC1c1ccc(-c2ccccc2C#N)cc1` (stereo not drawn) [Example 20, Propane-2-sulfonic acid[trans-3-(2′-cyano-biphenyl-4-yl)-piperidin-4-yl]-amide]: the “G7330B (U): % Effect” value under setting [4] is 39.9% and 48.6% and 44.4%. In addition, the EC50 is over 32 µM under setting [1] and over 32 µM under setting [2].

As to `CC(=O)N1CCC(c2ccc(-c3ccccc3)cc2)C(NS(=O)(=O)C(C)C)C1` (stereo not drawn) [Example 43, Propane-2-sulfonic acid(trans-1-acetyl-4-biphenyl-4-yl-piperidin-3-yl)-amide], the “G7330B (U): % Effect” value under setting [3] was 85.0% and 92.2% and 102%. Also, the EC50 is over 31.6 µM under setting [1] and over 31.6 µM under setting [2].

With `CC(C)S(=O)(=O)NC1CCOCC1c1ccc(-c2ccccc2)cc1` (stereo not drawn) [Example 17, Propane-2-sulfonic acid(cis-3-biphenyl-4-yl-tetrahydro-pyran-4-yl)-amide], the “G7330B (U): % Effect” value under setting [4] was 150% and 138% and 125%. Also, the EC50 turned out to be 7.17 µM under setting [1] and 7.17 µM under setting [2].

As for `CC(C)S(=O)(=O)NC1CCNCC1c1ccc(-c2ccc(C#N)cc2)cc1` (stereo not drawn) [Example 19, Propane-2-sulfonic acid[trans-3-(4′-cyano-biphenyl-4-yl)-piperidin-4-yl]-amide], the “G7330B (U): % Effect” value under setting [4] is 6.07% and 7.12% and 6.19%. Moreover, the EC50 under setting [1] was over 32 µM and the EC50 under setting [2] is over 32 µM.

As to `CC(C)S(=O)(=O)N[C@@H]1CN(C)CC[C@H]1c1ccc(-c2ccccc2)cc1` [Example 4, Propane-2-sulfonic acid ((3S,4S)-4-biphenyl-4-yl-1-methyl-piperidin-3-yl)-amide], the “G7330B (U): % Effect” value under setting [4] is 4.29% and 2.21% and 2.27% and 2.45% and 2.50% and 6.32% and 2.96% and 5.62% and 0.525%. The EC50 by setting is: under setting [1], over 32 µM; under setting [2], over 32 µM.

As to `CC(C)S(=O)(=O)NC1CCNCC1c1ccc(-c2ccccc2Cl)cc1` (stereo not drawn) [Example 22, Propane-2-sulfonic acid[trans-3-(2′-chloro-biphenyl-4-yl)-piperidin-4-yl]-amide], the “G7330B (U): % Effect” value under setting [4] was 18.9% and 23.3% and 17.1%. Besides, the EC50 reads like this: under setting [1], over 32 µM; under setting [2], over 32 µM.

Regarding `CC(C)S(=O)(=O)NC1CN(S(C)(=O)=O)CCC1c1ccc(-c2ccccc2)cc1` (stereo not drawn) [Example 6, propane-2-sulfonic acid (trans-4-biphenyl-4-yl-1-methanesulfonyl-piperidin-3-yl-amide], the “G7330B (U): % Effect” value under setting [3] is 0.710% and −1.26% and 0.0628%. For the same molecule, the EC50 by setting is: under setting [1], over 31.6 µM; under setting [2], over 31.6 µM.

Consider `CC(C)S(=O)(=O)N[C@@H]1COCC[C@H]1c1ccc(-c2ccccc2C#N)cc1` [Example 34, Propane-2-sulfonic acid[trans-4-(2′-cyano-biphenyl-4-yl)-tetrahydro-pyran-3-yl]-amide], for which the “G7330B (U): % Effect” value under setting [3] is on record as 137%. Moreover, the EC50 under setting [1] was 1.25 µM and the EC50 under setting [2] amounted to 1.25 µM.

As to `CC(=O)N1CCC(NS(=O)(=O)C(C)C)C(c2ccc(-c3ccccc3)cc2)C1` (stereo not drawn) [Example 27, propane-2-sulfonic acid(trans-1-acetyl-3-biphenyl-4-yl-piperidin-4-yl)-amide], under setting [4], the “G7330B (U): % Effect” value is 136% and 134% and 127%. For the same molecule, the EC50 is, setting by setting: under setting [1], 6.92 µM; under setting [2], 6.92 µM.

Consider `CCS(=O)(=O)NC1CCOCC1c1ccc(-c2ccccc2)cc1` (stereo not drawn) [Example 16, Ethanesulfonic acid(trans-3-biphenyl-4-yl-tetrahydro-pyran-4-yl)-amide], for which the “G7330B (U): % Effect” value under setting [4] was 153% and 141% and 140%. The EC50 by setting is: under setting [1], 10.4 µM and > 31.6 µM and > 10 µM; under setting [2], over 18.2 µM.

`CCOc1ccccc1-c1ccc(C2CCOCC2NS(=O)(=O)C(C)C)cc1` (stereo not drawn) [Example 33, Propane-2-sulfonic acid[trans-4-(2′-ethoxy-biphenyl-4-yl)-tetrahydro-pyran-3-yl]-amide]: the “G7330B (U): % Effect” value under setting [3] was 122% and 121%. For the same molecule, the EC50 is 1.94 µM under setting [1] and 1.94 µM under setting [2].

Consider `CC(C)S(=O)(=O)NC1COCCC1c1ccc(-c2ccccc2)cc1` (stereo not drawn) [Example 31, Propane-2-sulfonic acid(cis-4-biphenyl-4-yl-tetrahydro-pyran-3-yl)-amide], for which, under setting [4], the “G7330B (U): % Effect” value is 18.3% and 11.0% and 14.5%. Further, the EC50 is over 32 µM under setting [1] and over 32 µM under setting [2].
